Laboratory results as given in ChEMBL document CHEMBL4382286, “Nongenotoxic 3-Nitroimidazo[1,2-a]pyridines Are NTR1 Substrates That Display Potent in Vitro Antileishmanial Activity” (ACS Med Chem Lett, 2019).

Tests used:
Leishmania major [1] = test: Antileishmanial activity against intracellular amastigote stage of Leishmania major infected in human THP1 cells after 120 hrs by giemsa staining based microscopic analysis; format: functional, organism-based; details: THP-1, 120 h
Leishmania infantum [2] = test: Potency index, ratio of fexinidazole IC50 to test compound IC50 for Leishmania infantum axenic amastigotes; format: functional
Albumin [3] = target: T1, Albumin (Homo sapiens, UniProt P02768); test: Binding affinity to human serum albumin assessed as unbound fraction after 4 hrs by LC-MS analysis; format: ADME; details: isolated protein
Leishmania major [4] = test: Antileishmanial activity against promastigote stage of Leishmania major MHOM/IL/81/Friedlin after 72 hrs by MTT assay; format: functional, organism-based
Leishmania donovani [5] = test: Potency index, ratio of miltefosine IC50 to test compound IC50 for intracellular amastigote stage of Leishmania donovani infected in human THP1 cells; format: functional
[6] = Toxicity in Swiss mouse assessed as effect on spleen at 1 mg/kg, ip administered for 5 days measured measured on day 7 to day 30 post last dose by HES staining based microscopic analysis; format: organism-based; details: in vivo, 120 h
[7] = Toxicity in Swiss mouse assessed as effect on adipose tissue at 1 mg/kg, ip administered for 5 days measured measured on day 7 to day 30 post last dose by HES staining based microscopic analysis; format: organism-based; details: in vivo, 120 h
[8] = Toxicity in Swiss mouse assessed as effect on liver by measuring inflammatory cell infiltration at 10 mg/kg, ip administered for 5 days measured measured on day 7 to day 30 post last dose by HES staining based microscopic analysis; format: organism-based; details: in vivo, 120 h
[9] = Toxicity in Swiss mouse assessed as inflammation at injection site 10 mg/kg, ip administered for 5 days measured measured on day 7 to day 30 post last dose by HES staining based microscopic analysis; format: organism-based; details: in vivo, 120 h
[10] = Substrate activity at NTR1 in promastigote stage of Leishmania donovani MHOM/SD/62/1S-CL2D assessed as inhibition of parasite growth after 72 hrs by resazurin dye based assay
[11] = Mutagenicity in Salmonella typhimurium TA100 at 62.5 to 625 uM preincubated for 1 hr with S9 mix followed by addition of molten top agar and measured 48 hrs post dark incubation by Ames test; format: toxicity, subcellular; details: salmonella enterica subsp. enterica serovar typhimurium, s9, 48 h
[12] = Toxicity in Swiss mouse assessed as effect on kidney at 1 mg/kg, ip administered for 5 days measured measured on day 7 to day 30 post last dose by HES staining based microscopic analysis; format: organism-based; details: in vivo, 120 h
[13] = Selectivity index, ratio of CC50 for human HepG2 cells to IC50 for promastigote stage of Leishmania donovani MHOM/IN/00/DEVI; format: toxicity; details: read-out: Ratio CC50/IC50
Leishmania donovani [14] = test: Selectivity ratio of IC50 for wild type promastigote stage of Leishmania donovani MHOM/SD/62/1S-CL2D to IC50 for NTR1 in promastigote stage of Leishmania donovani MHOM/SD/62/1S-CL2D
[15] = Electrochemical behavior of the compound assessed as redox potential corrected toward normal hydrogen electrode by cyclic voltammetry
[16] = Cytotoxicity against human THP1 cells after 72 hrs by MTT assay; format: cell-based; details: THP-1 cells
Leishmania donovani [17] = test: Antileishmanial activity against promastigote stage of Leishmania donovani MHOM/IN/00/DEVI after 72 hrs by MTT assay; format: functional, organism-based
[18] = Acute toxicity in Swiss mouse at 1 to 10 mg/kg, ip measured for 24 hrs; format: organism-based; details: in vivo
[19] = Solubility of the compound in RPMI medium at 4 to 6 uM; format: physicochemical
Leishmania infantum [20] = test: Antileishmanial activity against Leishmania infantum axenic amastigotes after 48 hrs by steady-glo luciferase reporter gene assay; format: functional, organism-based
Plasmodium falciparum = test: Antiplasmodial activity against chloroquine/proguanil/pyrimethamine-resistant synchronized stage of Plasmodium falciparum K1 after 72 hrs by SYBR green1 staining based spectrophotometric method; format: functional, organism-based; details: K1, 72 h
[21] = Mutagenicity in Salmonella typhimurium TA102 at 62.5 to 625 uM preincubated for 1 hr with S9 mix followed by addition of molten top agar and measured 48 hrs post dark incubation by Ames test; format: toxicity, subcellular; details: salmonella enterica subsp. enterica serovar typhimurium, s9, 48 h
Trichomonas vaginalis = test: Antiprotozoal activity against Trichomonas vaginalis TVR87 measured after 48 hrs by trypan blue assay; format: functional, organism-based
[22] = Toxicity in Swiss mouse assessed as effect on heart at 1 mg/kg, ip administered for 5 days measured measured on day 7 to day 30 post last dose by HES staining based microscopic analysis; format: organism-based; details: in vivo, 120 h
[23] = Mutagenicity in Salmonella typhimurium TA98 at 62.5 to 625 uM preincubated for 1 hr followed by addition of molten top agar and measured 48 hrs post dark incubation by Ames test; format: toxicity; details: salmonella enterica subsp. enterica serovar typhimurium
[24] = Toxicity in Swiss mouse assessed as effect on brain at 1 mg/kg, ip administered for 5 days measured measured on day 7 to day 30 post last dose by HES staining based microscopic analysis; format: organism-based; details: in vivo, 120 h
Leishmania donovani [25] = test: Antileishmanial activity against intracellular amastigote stage of Leishmania donovani infected in human THP1 cells after 120 hrs by giemsa staining based microscopic analysis; format: functional, organism-based; details: THP-1, 120 h
Leishmania donovani [26] = test: Antileishmanial activity against wild type promastigote stage of Leishmania donovani MHOM/SD/62/1S-CL2D after 72 hrs by resazurin dye based fluorescence assay; format: functional, organism-based
[27] = Cytotoxicity against human HepG2 cells after 72 hrs by MTT assay; format: cell-based
[28] = Mutagenicity in Salmonella typhimurium TA102 at 62.5 to 625 uM preincubated for 1 hr followed by addition of molten top agar and measured 48 hrs post dark incubation by Ames test; format: toxicity; details: salmonella enterica subsp. enterica serovar typhimurium
[29] = Drug metabolism in CD-1 mouse hepatic microsomes assessed as 6-chloro-8-(4-chlorophenylsulfinyl)-3-nitro-2-(phenylsulfonylmethyl)imidazo[1,2-a]pyridine formation in presence of NADPH by LC-MS/MS analysis; format: ADME, Liver, Microsome
Leishmania donovani [30] = test: Selectivity ratio of IC50 for NTR2 in promastigote stage of Leishmania donovani MHOM/SD/62/1S-CL2D to IC50 for NTR1 in promastigote stage of Leishmania donovani MHOM/SD/62/1S-CL2D
[31] = Toxicity in Swiss mouse assessed as fibrosis at injection site 10 mg/kg, ip administered for 5 days measured measured on day 7 to day 30 post last dose by HES staining based microscopic analysis; format: organism-based; details: in vivo, 120 h
[32] = test system: Trypanosoma brucei brucei; test: Antitrypanosomal activity against trypomastigote stage of Trypanosoma brucei brucei AnTat 1.9 assessed as decrease in parasite viability after 69 hrs by Alamar Blue assay; format: functional, organism-based; details: AnTat 1.9, 69 h
[33] = Toxicity in Swiss mouse assessed as effect on liver at 1 mg/kg, ip administered for 5 days measured measured on day 7 to day 30 post last dose by HES staining based microscopic analysis; format: organism-based; details: in vivo, 120 h
[34] = Half life in CD-1 mouse hepatic microsomes in presence of NADPH by LC-MS/MS analysis; format: ADME, Microsome; details: liver microsomes
[35] = Mutagenicity in Salmonella typhimurium TA100 at 62.5 to 625 uM preincubated for 1 hr followed by addition of molten top agar and measured 48 hrs post dark incubation by Ames test; format: toxicity; details: salmonella enterica subsp. enterica serovar typhimurium
[36] = Mutagenicity in Salmonella typhimurium TA97a at 62.5 to 625 uM preincubated for 1 hr with S9 mix followed by addition of molten top agar and measured 48 hrs post dark incubation by Ames test; format: toxicity, subcellular; details: salmonella enterica subsp. enterica serovar typhimurium, s9, 48 h
[37] = Toxicity in Swiss mouse assessed as effect on skin by measuring hypodermic lymph node at 10 mg/kg, ip administered for 5 days measured measured on day 7 to day 30 post last dose by HES staining based microscopic analysis; format: organism-based; details: in vivo, 120 h
[38] = Toxicity in Swiss mouse assessed as effect on muscles at 1 mg/kg, ip administered for 5 days measured measured on day 7 to day 30 post last dose by HES staining based microscopic analysis; format: organism-based; details: in vivo, 120 h
[39] = Lipophilicity, log D of the compound at pH 7.4 by HPLC analysis; format: physicochemical; details: buffer
[40] = Solubility of the compound in RPMI medium at >62.5 uM; format: physicochemical
Trypanosoma cruzi = test: Antitrypanosomal activity against Trypanosoma cruzi MHOM/BR/78/Silvio cloneX10/7A epimastigotes measured after 4 days by resazurin dye based fluorescence assay; format: functional, organism-based; details: 96 h
[41] = Mutagenicity in Salmonella typhimurium TA97a at 62.5 to 625 uM preincubated for 1 hr followed by addition of molten top agar and measured 48 hrs post dark incubation by Ames test; format: toxicity; details: salmonella enterica subsp. enterica serovar typhimurium
HepG2 = test: Genotoxicity in human HepG2 cells at 1 to 20 uM after 2 to 72 hrs by comet assay; format: toxicity, cell-based; details: hepg2, 20 µM
[42] = Toxicity in Swiss mouse assessed as effect on lungs at 1 mg/kg, ip administered for 5 days measured measured on day 7 to day 30 post last dose by HES staining based microscopic analysis; format: organism-based; details: in vivo, 120 h
[43] = Mutagenicity in Salmonella typhimurium TA98 at 62.5 to 625 uM preincubated for 1 hr with S9 mix followed by addition of molten top agar and measured 48 hrs post dark incubation by Ames test; format: toxicity, subcellular; details: salmonella enterica subsp. enterica serovar typhimurium, s9, 48 h
Albumin [44] = target: T1, Albumin; test: Binding affinity to human serum albumin after 4 hrs by LC-MS analysis; format: ADME; details: read-out: PB (converted)
[45] = Substrate activity at NTR2 in promastigote stage of Leishmania donovani MHOM/SD/62/1S-CL2D assessed as inhibition of parasite growth after 72 hrs by resazurin dye based assay

T1 sequence (P02768 whole entry): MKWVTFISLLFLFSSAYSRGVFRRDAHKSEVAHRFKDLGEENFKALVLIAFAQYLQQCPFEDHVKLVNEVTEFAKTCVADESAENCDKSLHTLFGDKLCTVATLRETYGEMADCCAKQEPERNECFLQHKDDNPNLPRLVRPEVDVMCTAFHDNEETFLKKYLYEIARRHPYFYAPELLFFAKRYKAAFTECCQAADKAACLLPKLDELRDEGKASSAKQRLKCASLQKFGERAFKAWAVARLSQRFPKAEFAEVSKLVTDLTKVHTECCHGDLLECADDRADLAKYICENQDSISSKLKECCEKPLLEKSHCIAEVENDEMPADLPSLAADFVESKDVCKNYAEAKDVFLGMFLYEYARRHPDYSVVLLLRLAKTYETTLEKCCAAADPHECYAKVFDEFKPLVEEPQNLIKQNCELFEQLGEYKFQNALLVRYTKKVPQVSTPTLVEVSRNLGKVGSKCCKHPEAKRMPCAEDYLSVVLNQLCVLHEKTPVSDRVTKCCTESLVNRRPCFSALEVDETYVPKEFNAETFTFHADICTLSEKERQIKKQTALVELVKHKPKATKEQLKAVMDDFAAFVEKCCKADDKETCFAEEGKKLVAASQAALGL

SMILES: O=[N+]([O-])c1c(CS(=O)(=O)c2ccccc2)nc2c(Sc3ccc(Cl)cc3)cc(Cl)cn12
- IC50 (Leishmania major [1]): 2100 nM
- Ratio IC50 (Leishmania infantum [2]): 2
- logFu (Albumin [3]): -3.28
- IC50 (Leishmania major [4]): 1300 nM
- Ratio IC50 (Leishmania donovani [5]): 3
- Activity [6]: Non-Toxic
- Activity [7]: Non-Toxic
- Activity [8]: Non-Toxic
- Activity [9]: Non-Toxic
- IC50 [10]: 33 nM
- Activity [11]: Non-Toxic
- Activity [12]: Non-Toxic
- selectivity ratio [13]: > 100
- Ratio IC50 (Leishmania donovani [14]): 8
- Activity [15]: -0.63 V
- CC50 at 72 h [16]: > 62500 nM
- IC50 (Leishmania donovani [17]): 1000 nM
- Activity [18]: Non-Toxic
- solubility [19]: Soluble
- IC50 (Leishmania infantum [20]): 1700 nM
- IC50 (Plasmodium falciparum): 19000 nM
- Activity [21]: Non-Toxic
- IC50 (Trichomonas vaginalis): 4600 to 5000 nM
- Activity [22]: Non-Toxic
- Activity [23]: Non-Toxic
- Activity [24]: Non-Toxic
- IC50 (Leishmania donovani [25]): 1000 to 1300 nM
- IC50 (Leishmania donovani [26]): 260 nM
- CC50 at 72 h [27]: > 100000 nM
- Activity [28]: Non-Toxic
- Drug metabolism [29]: Metabolite_Detected
- Ratio IC50 (Leishmania donovani [30]): 8
- Activity [31]: Non-Toxic
- IC50 [32]: 1300 nM
- Activity [33]: Non-Toxic
- half-life [34]: 3 min
- Activity [35]: Non-Toxic
- Activity [36]: Non-Toxic
- Activity [37]: Non-Toxic
- Activity [38]: Non-Toxic
- logD [39]: 4.26
- solubility [40]: Insoluble
- IC50 (Trypanosoma cruzi): 2200 nM
- Activity [41]: Non-Toxic
- Activity (HepG2): Non-Toxic
- Activity [42]: Non-Toxic
- Activity [43]: Non-Toxic
- fraction unbound at 4 h (Albumin [44]): 0.0005
- IC50 [45]: 300 nM
